According to PubChem BioAssay (NCI):
Several values for one entry are separate records, joined by “and”; a condition that tells them apart may be missing. Identical values can stand only once.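 A five-concentration, 48-hour dose response in 96-well plates underlies each endpoint, interpolated linearly between surrounding concentrations. GI50 = concentration required for 50% inhibition of growth. At the TGI there is no net growth.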

What was measured:
Assay in all cases: NCI tumour cell line growth inhibition, 48 h
MDA-MB-231 breast = system: MDA-MB-231 breast
NCI-H522 lung = system: NCI-H522 lung
NCI-H460 lung = system: NCI-H460 lung
OVCAR-4 ovarian = system: OVCAR-4 ovarian
786-0 renal = system: 786-0 renal
HCT-15 colon = system: HCT-15 colon
HOP-92 NSCLC = system: HOP-92 NSCLC
SK-MEL-2 melanoma = system: SK-MEL-2 melanoma
KM12 colon = system: KM12 colon
SN12C renal = system: SN12C renal

| SMILES | GI50 (MDA-MB-231 breast) [µM] | TGI (MDA-MB-231 breast) | GI50 (NCI-H522 lung) [µM] | TGI (NCI-H522 lung) | GI50 (NCI-H460 lung) [µM] | TGI (NCI-H460 lung) | GI50 (OVCAR-4 ovarian) [µM] | TGI (OVCAR-4 ovarian) | GI50 (786-0 renal) [µM] | TGI (786-0 renal) | GI50 (HCT-15 colon) [µM] | TGI (HCT-15 colon) | GI50 (HOP-92 NSCLC) [µM] | TGI (HOP-92 NSCLC) | GI50 (SK-MEL-2 melanoma) [µM] | TGI (SK-MEL-2 melanoma) [µM] | GI50 (KM12 colon) [µM] | TGI (KM12 colon) | GI50 (SN12C renal) [µM] | TGI (SN12C renal) |
| --- | --- | --- | --- | --- | --- | --- | --- | --- | --- | --- | --- | --- | --- | --- | --- | --- | --- | --- | --- | --- |
| COc1cc2c(c(OC)c1OC)-c1ccc(O)c(=O)cc1[C@@H](NC(C)=O)CC2 | 4.7 | > 100 µM and 41.7 µM | 4.64 | 90.8 µM and 36.4 µM | 3.9 | > 100 µM and 28.6 µM | 3.64 | > 100 µM and 66.1 µM | 12.3 | 62 µM and 92.1 µM | 5.04 | > 100 µM and 28 µM | 9.92 | > 100 µM and 58.3 µM | 20 | > 100 | 8.68 | > 100 µM and 32.8 µM | 7.93 | 88.2 µM and 35 µM |
| CCOC(=O)Cc1csc(N=Nc2c(O)[nH]c3ccccc23)n1 | – | > 100 µM | – | 93.5 µM | – | > 100 µM | – | > 100 µM | – | > 100 µM | – | > 100 µM | – | > 100 µM | – | > 100 | – | > 100 µM | – | > 100 µM |
| CN(C)CCCc1c2ccccc2nc2ccc(Cl)cc12 | – | 31.9 µM | – | 29.4 µM | – | 25.3 µM | – | 56.1 µM | – | 24.4 µM | – | 93.7 µM | – | 23.1 µM | – | 34.8 | – | 32.5 µM | – | 26.1 µM |
| COc1cc2c3c(c1OC)C1(C=CC(=O)C=C1)CC3NCC2 (stereo not given) | – | > 100 µM | – | > 100 µM | – | > 100 µM | – | > 100 µM | – | > 100 µM | – | > 100 µM | – | > 100 µM | – | > 100 | – | > 100 µM | – | > 100 µM |
| CCCCNC(=O)Oc1ccc(/C(=C(/CC)Cc2ccccc2)c2ccc(OCCN3CCCCCC3)cc2)cc1 | 19.2 | 36.6 µM | 20 | 43.8 µM | 18.6 | 33.8 µM | 19.2 | 51.3 µM | 16.2 | 30 µM | 16.4 | 36.3 µM | 19 | 47.2 µM | 71.9 | > 100 | 31.7 | > 100 µM | 29.6 | 83.6 µM |
| CC(=O)c1cccc(-c2cccc(-c3ccn(CCN4CCOCC4)n3)c2)c1 | > 20 | > 20 µM | > 20 | > 20 µM | > 20 | > 20 µM | > 20 | > 20 µM | > 20 | > 20 µM | > 20 | > 20 µM | 16.2 | > 20 µM | > 20 | > 20 | > 20 | > 20 µM | > 20 | > 20 µM |
| CCC[CH2][Sn]1([CH2]CCC)[O]C(=O)c2ccc(N)cc2[O]1 | 0.185 | 1.42 µM | 0.048 | 0.179 µM | 1.73 | 4.21 µM | 1.29 | 2.59 µM | 0.41 | 1.61 µM | 0.46 | 2.21 µM | 0.149 | 0.988 µM | 0.141 | 0.913 | 1.24 | 2.59 µM | 0.88 | 2.37 µM |
